Data set [1] in a line: pharmacokinetic study in plasma after i.v. and i.p. administration. It counts as in vivo, mice. The note with it: HBK-14 2.5 mg/kg, HBK-15 1.25 mg/kg; for AUC(0-inf) / C0: mouse plasma; for C0: read-out: C 0 (initial concentration); for Cmax / MRT / half-life / Tmax / bioavailability / clearance / Vd: CD-1, mouse, plasma; for Cmax: read-out: C max (maximum plasma concentration); for MRT: read-out: MRT (mean residence time) (converted); for half-life: read-out: t 0.5 (terminal half-life); for Tmax: read-out: t max (time to reach the maximum plasma concentration) (converted); for bioavailability: after i.p. administration, AUCi.p./AUCi.v., read-out: F (absolute bioavailability); for clearance: read-out: Cl (systemic clearance); for Vd: read-out: V d (volume of distribution at steady state). The procedure:
For pharmacokinetic study, HBK-14 and HBK-15 dissolved in saline were administered by an intravenous (i.v.) and intraperitoneal (i.p.) administration at a dose of 2.5 and 1.25 mg/kg, respectively. Blood samples were collected at 0 min (predose), 5 min, 15 min, 30 min, 60 min, 120 min, and 240 min after compounds administration. The blood and brain samples were collected under general anesthesia induced by i.p. injections of 50 mg/kg ketamine plus 8 mg/kg xylazine. Blood samples were collected into heparinized tubes. The samples were immediately centrifuged at 3500 rpm for 10 min, and plasma was collected. The brain and plasma samples were immediately frozen at −80 °C for further analysis.
Pharmacokinetic parameters were calculated by a non-compartmental approach from the average concentration values, using Phoenix WinNonlin software (Certara, Princeton, NJ 08540, USA). First-order elimination rate constant (λ z) was calculated by linear regression of time vs log concentration. Next, the area under the mean serum and brain concentration vs time curve extrapolated to infinity (AUC0→∞) was estimated using the log-linear trapezoidal rule (Eq. 1), where C n is the concentration of last sampling of each compound.1 AUC0→∞=∑i=1nCi+Ci+1/2⋅ti+1−ti+Cn/λz
Area under the first moment curve (AUMC0→∞) was estimated by calculation of the total area under the first moment curve and extrapolated area using the Eq. 2, where t n is the time of last sampling.2 AUMC0→∞=∑i=1nti⋅Ci+ti+1⋅Ci+1/2⋅ti+1−ti+tn⋅Cn/λz+Cn/λz2
Mean residence time (MRT) was calculated as3 MRT=AUMC0→∞/AUC0→∞
Total clearance (ClT) was calculated as4 ClT=Div/AUC0→∞
Volume of distribution at steady state (Vss) was calculated as5 Vss=Div⋅AUMC0→∞/AUC0→∞^2
The quantification of studied compounds in plasma and brain samples was accomplished using UFLC Nexera system (Shimadzu, Kyoto, Japan) coupled to the triple quadrupole mass spectrometer QTrap 5500 (Sciex, Framingham, MA, USA) equipped with Turbo V™ ion source. After preparation, the samples were injected (5 μL) onto Acquity UPLC BEH C18 (3.0 × 100 mm, 1.7 μm, Waters, Milford, MA, USA) analytical column. The mobile phases that consisted of ACN with 0.1% FA (A) and water with 0.1% FA (B) were delivered in isocratic elution mode (40% A, 60% B) at the flow rate of 550 μL/min. The total time of analysis was 8 min including 2 min of column equilibration.
Electrospray ionization process was performed in positive polarization, and the data acquisition was carried out in multiple reaction monitoring mode (MRM) for all analytes and their internal standard (HBK-11 [37]). The ion spray source settings were as follows: spray voltage 4.5 kV, heater temperature 450 °C, curtain gas 25 psi, source gas 1 40 psi, source gas 2 40 psi.
An amount of 50 μL of sample (plasma or brain homogenate) was transferred into the clean Eppendorf tube and spiked with 5 μL of internal standard solution (IS, 1 μg/mL) obtaining the final concentration of 100 ng/mL. After 5 min of mixing (1500 rpm), proteins were precipitated using 150 μL ACN. After 10 min of samples shaking (1500 rpm), the incubation step was performed (10 min, 4 °C). Next, samples were centrifuged (10,000 rpm, 10 min, 4 °C) and the supernatant was transferred into chromatographic vial for LC/MS/MS analysis.

Data set [2] concerns BDNF level in the hippocampus. Kind of data set: BDNF level in the hippocampus (ELISA), single administration. It counts as in vivo, mice. On the procedure: Mice were injected with corticosterone (s.c., 20 mg/kg) at random times during the light phase for consecutive 21 days (Fig. 1c). The dose and route of administration of corticosterone were based on studies performed by Zhao and colleagues. After the end of the procedure, next day 30 min before the test, corticosterone-treated mice were given (i.p.) saline, HBK-15 (1.25 mg/kg), fluoxetine (10 mg/kg), or ketamine (1 mg/kg) (Fig. 1c). Control mice received (i.p.) saline. The experimental groups consisted of eight randomly selected animals. We chose the dose of HBK-15 that was active in the chronic experiments (i.e., 1.25 mg/kg). The dose of ketamine was based on the studies performed by Pazini and colleagues. Animals were tested in the forced swim test and spontaneous locomotor activity test. After behavioral testing, mice were scarified and their hippocampi collected for biochemical analysis.
After the behavioral assessments, mice were sacrificed, and their brains were rapidly removed and chilled in an ice-cold saline solution. The hippocampi were dissected on a cold plate, frozen, and stored at −80 °C until assay. On the day of experiments, tissues were thawed on ice and homogenized (1:9 w/v) in phosphate-buffered saline (4 °C) and protease inhibitor cocktail was added. The 10% homogenates were prepared and homogenized for 30 s with TissueRuptor homogenizer. The homogenized tissues were centrifuged (2500×g at 4 °C for 20 min), and the supernatants were collected for further assays.
Protein concentrations of BDNF and NGF in homogenates from hippocampi were determined using the enzyme-linked immunosorbent assay (ELISA) kits (BDNF: DZE201020014, SunRed Biotechnology Company; NGF: MBS825100, MyBioSource) according to the manufacturer’s instructions. […] The samples were analyzed in duplicates, and the mean concentrations were calculated. […] The intensity of the color was read at 450 nm. Absorbance was measured in a multifunction plate reader (POLARstar Omega, BMG Labtech, Germany). […]

Data on three compounds can be found in PMC5884906, “Single Administration of HBK-15—a Triple 5-HT1A, 5-HT7, and 5-HT3 Receptor Antagonist—Reverses Depressive-Like Behaviors in Mouse Model of Depression Induced by Corticosterone” (Molecular Neurobiology, 2017).

SMILES strings stand for the structures. Read-outs that look alike come from different tables or passages of the source.

By AUC(0-inf) is commonly meant total exposure, with the tail of the curve extrapolated. Lower therefore signals less exposure. One may read the MRT as the average time that molecules of a dose stay in the body. As usually defined, the half-life is the time in which the quantity being followed falls by half. What is called bioavailability is the share of a dose that reaches the circulation, judged against a reference dose that is usually intravenous. In data set [1] (CD-1, ip, i.p.), `COc1ccccc1N1CCN(CCOCCOc2c(C)cccc2C)CC1.Cl` [HBK-14, 1-[(2,6-Dimethylphenoxy)ethoxyethyl]-4-(2-methoxyphenyl)piperazine hydrochloride] had an AUC(0-inf) of 560 ng·h/mL. Moreover, in data set [1] (CD-1, iv, i.v.), the total exposure AUC(0-inf) is 1720 ng·h/mL and the C0 is 410 ng/mL. Further, in data set [1] (ip), the Cmax was 269 ng/mL, the MRT is 0.805 h, the half-life came out at 0.633 h and the Tmax was 5 min. Also, in data set [1] (ip), the bioavailability is 15%. Besides, in data set [1] (iv), the clearance was 24.2 mL/min/kg, the MRT is 7.57 h, the Vd is 11.2 L/kg and the half-life worked out at 5.38 h. In addition, the “t 0.5 (terminal half-life)” value in data set [1] (i.p.) was 0.637 h. For the same compound, the “t 0.5 (terminal half-life)” value in data set [1] (i.v.) worked out at 5.378 h.
For the compound `COc1ccccc1N1CCN(CCOCCOc2c(C)cccc2Cl)CC1.Cl` [HBK-15, 1-[(2-chloro-6-methylphenoxy)ethoxyethyl]-4-(2-methoxyphenyl)piperazine hydrochloride], the AUC(0-inf) in data set [1] (CD-1, ip, i.p.) was 261 ng·h/mL. Also, in data set [1] (CD-1, iv, i.v.), the area under the curve AUC(0-inf) is 484 ng·h/mL and the C0 was 602 ng/mL. In data set [1] (ip), the Cmax stood at 359 ng/mL, the mean residence time (MRT) was 1.81 h, the half-life was 1.4 h and the Tmax is 5 min. Besides, in data set [1] (ip), the bioavailability was 54%. Also, in data set [1] (iv), the clearance came out at 40.2 mL/min/kg, the MRT is 1.5 h, the Vd was 3.5 L/kg and the half-life worked out at 1.18 h. Further, the “t 0.5 (terminal half-life)” value in data set [1] (i.p.) is 1.39 h. Also, the “t 0.5 (terminal half-life)” value in data set [1] (i.v.) stood at 1.18 h. For the same compound, the “effect on corticosterone-induced decrease in BDNF level in the hippocampus” value in data set [2] (single 1.25 mg/kg i.p.) was “reversed the decrease in BDNF level”.
Consider `C[C@]12C[C@H](O)[C@H]3[C@@H](CCC4=CC(=O)CC[C@@]43C)[C@@H]1CC[C@@H]2C(=O)CO` [corticosterone], for which the “decrease in BDNF level in the hippocampus vs control” value in data set [2] (acute experiment, corticosterone 20 mg/kg s.c. 21 days + saline) came out at 47.0%.
